Assay type in all cases: functional
Experiment [1] has as its system Shigella flexneri. Nature of the experiment: Antimicrobial activity against Shigella flexneri isolate AM19035 by broth microdilution method. For orientation: Dilution methods test growth across graded concentrations, often in twofold steps.
Experiment [2] deals with Shigella. Nature of the experiment: Antimicrobial activity against Shigella isolate DH-26336 by broth microdilution method.
Experiment [3] has as its system Shigella. Nature of the experiment: Antimicrobial activity against Shigella isolate DH-22451 by broth microdilution method.
In experiment [4] the test system is Shigella sonnei. Nature of the experiment: Antimicrobial activity against Shigella sonnei isolate AM22451 by broth microdilution method.
Experiment [5] has as its system Shigella sonnei. Nature of the experiment: Antimicrobial activity against Shigella sonnei isolate AM22855 by broth microdilution method.
Experiment [6] concerns Shigella flexneri. Nature of the experiment: Antimicrobial activity against Shigella flexneri isolate AM26336 by broth microdilution method.
The subject of experiment [7] is Shigella flexneri. Nature of the experiment: Antimicrobial activity against Shigella flexneri isolate AM13291 by broth microdilution method.
The subject of experiment [8] is Shigella. Nature of the experiment: Antimicrobial activity against Shigella isolate DH-20369 by broth microdilution method.
Experiment [9] has as its system Shigella sonnei. Nature of the experiment: Antimicrobial activity against Shigella sonnei isolate AM20369 by broth microdilution method.
Experiment [10] deals with Shigella. Nature of the experiment: Antimicrobial activity against Shigella isolate DH-22855 by broth microdilution method.
The test system of experiment [11] is Shigella. Nature of the experiment: Antimicrobial activity against Shigella isolate DH-13291 by broth microdilution method.
Experiment [12] concerns Shigella. Nature of the experiment: Antimicrobial activity against Shigella isolate DH-19035 by broth microdilution method.

Values after ≈ are worked out from the molar mass of the structure shown.

One may read the MIC as the least concentration at which growth counts as inhibited. A higher MIC goes with weaker potency.

For the compound `CO/N=C(\C(=O)N[C@@H]1C(=O)N2C(C(=O)O)=C(COC(C)=O)CS[C@H]12)c1csc(N)n1` [CEFOTAXIME], the MIC came to 32 µg/mL (≈ 70.3 µM) with Shigella flexneri [1]; 64 µg/mL (≈ 141 µM) in the experiment with Shigella [2]; 128 µg/mL (≈ 281 µM) in the experiment on Shigella [3]; 64 µg/mL (≈ 141 µM) in the experiment on Shigella sonnei [4]; 64 µg/mL (≈ 141 µM) in the experiment with Shigella sonnei [5]; 8 µg/mL (≈ 17.6 µM) in the experiment on Shigella flexneri [6]. The minimum inhibitory concentration (MIC) against Shigella flexneri [7] is 8 µg/mL (≈ 17.6 µM); with Shigella [8], 128 µg/mL (≈ 281 µM); in the experiment with Shigella sonnei [9], 64 µg/mL (≈ 141 µM); against Shigella [10], 64 µg/mL (≈ 141 µM); against Shigella [11], 32 µg/mL (≈ 70.3 µM); against Shigella [12], 64 µg/mL (≈ 141 µM).

Take `CO/N=C(\C(=O)N[C@@H]1C(=O)N2C(C(=O)[O-])=C(C[N+]3(C)CCCC3)CS[C@H]12)c1csc(N)n1` [CEFEPIME]: the minimal inhibitory concentration (MIC) with Shigella flexneri [1] stood at 2 µg/mL (≈ 4.16 µM); in the experiment with Shigella [2], 4 µg/mL (≈ 8.32 µM); in the experiment with Shigella [3], 16 µg/mL (≈ 33.3 µM); against Shigella sonnei [4] it was 8 µg/mL (≈ 16.6 µM); with Shigella sonnei [5], 8 µg/mL (≈ 16.6 µM); in the experiment with Shigella flexneri [6], 2 µg/mL (≈ 4.16 µM). The MIC with Shigella flexneri [7] is 2 µg/mL (≈ 4.16 µM); in the experiment with Shigella [8] it was 16 µg/mL (≈ 33.3 µM); against Shigella sonnei [9] it was 8 µg/mL (≈ 16.6 µM); in the experiment with Shigella [10] it was 16 µg/mL (≈ 33.3 µM); in the experiment on Shigella [11], 4 µg/mL (≈ 8.32 µM); in the experiment with Shigella [12] it was 4 µg/mL (≈ 8.32 µM).

Take `CC(C)(O/N=C(\C(=O)N[C@@H]1C(=O)N2C(C(=O)[O-])=C(C[n+]3ccccc3)CS[C@H]12)c1csc(N)n1)C(=O)O` [CEFTAZIDIME]: the MIC with Shigella flexneri [1] amounted to 0.5 µg/mL (≈ 0.915 µM); in the experiment with Shigella [2] it was 4 µg/mL (≈ 7.32 µM); against Shigella [3], 32 µg/mL (≈ 58.5 µM); in the experiment on Shigella sonnei [4] it was 8 µg/mL (≈ 14.6 µM); with Shigella sonnei [5], 8 µg/mL (≈ 14.6 µM); against Shigella flexneri [6], 0.5 µg/mL (≈ 0.915 µM). Moreover, the MIC against Shigella flexneri [7] was 0.5 µg/mL (≈ 0.915 µM); in the experiment with Shigella [8] it was 16 µg/mL (≈ 29.3 µM); with Shigella sonnei [9] it was 8 µg/mL (≈ 14.6 µM); in the experiment with Shigella [10], 16 µg/mL (≈ 29.3 µM); with Shigella [11], 2 µg/mL (≈ 3.66 µM); against Shigella [12], 2 µg/mL (≈ 3.66 µM).

Take `CO/N=C(\C(=O)N[C@@H]1C(=O)N2C(C(=O)O)=C(CSc3nc(=O)c(O)nn3C)CS[C@H]12)c1csc(N)n1` [CEFTRIAXONE]: the MIC was 32 µg/mL (≈ 57.7 µM) with Shigella flexneri [1]; 32 µg/mL (≈ 57.7 µM) in the experiment on Shigella [2]; above 64 µg/mL in the experiment with Shigella [3]; above 64 µg/mL in the experiment with Shigella sonnei [4]; 64 µg/mL (≈ 115 µM) in the experiment with Shigella sonnei [5]; 16 µg/mL (≈ 28.9 µM) against Shigella flexneri [6]. Moreover, the MIC was 16 µg/mL (≈ 28.9 µM) against Shigella flexneri [7]; above 64 µg/mL against Shigella [8]; 64 µg/mL (≈ 115 µM) with Shigella sonnei [9]; above 64 µg/mL with Shigella [10]; 32 µg/mL (≈ 57.7 µM) against Shigella [11]; 32 µg/mL (≈ 57.7 µM) in the experiment on Shigella [12].

(Values after ChEMBL document CHEMBL1255459, “Identification and characterization of CTX-M-producing Shigella isolates in the United States” (2010).)
